Reference: US6914045B2, “Glycopeptide antibiotics” (Wyeth Holdings Corporation, priority 2001, dated 2005)

Assays:
Assay in all cases: in vitro antibacterial evaluation, MIC by broth dilution
Type in all cases: cell-based
Escherichia coli = settings: 18 hours at 35° C.
Outline: (§1)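 Inoculum 5×10^5 CFU/mL; concentrations 64 to 0.06 μg/mL; MIC defined as lowest inhibitory level. Conducted by broth dilution under NCCLS guidelines.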

Streptococcus sp. = settings: broth dilution, 18 hours at 35° C.
Outline: as §1

Staphylococcus sp. = settings: broth dilution, 18 hours at 35° C.
Outline: as §1

Enterococcus sp. = settings: broth dilution, 18 hours at 35° C.
Outline: as §1

CC(c1ccccc1)C1NC(=O)CNC(=O)C(CO)NC(=O)C(C(O)C2CNC(=N)N2C2OC(CO)C(O)C(O)C2O)NC(=O)C(C(O)C2CNC(=N)N2)NC(=O)C(Cc2ccc(OC3OC(CO)C(OC4OC5COC(c6cccs6)OC5C(O)C4O)C(O)C3O)cc2)NC1=O (stereo not shown) [Example 132]
4 µg/mL: MIC Staphylococcus aureus (ATCC 29213) (Staphylococcus sp.) | MIC Staphylococcus aureus (GC 3053) (Staphylococcus sp.) | MIC Staphylococcus aureus (GC 4544) (Staphylococcus sp.) | MIC Staphylococcus aureus (ATCC 29213) (Staphylococcus sp.; strain ATCC 29213) | MIC Staphylococcus aureus (GC 3053) (Staphylococcus sp.; strain GC 3053) | MIC Staphylococcus aureus (GC 4544) (Staphylococcus sp.; strain GC 4544) | MIC Enterococcus faecium (GC 4557) (Enterococcus sp.; Enterococcus faecium (GC 4557)) | MIC Enterococcus faecium (GC 4557) (Enterococcus sp.; strain GC 4557)
0.25 µg/mL: MIC Streptococcus pneumoniae (ATCC 6301) (Streptococcus sp.; Streptococcus pneumoniae (ATCC 6301)) | MIC Streptococcus pneumoniae (GC 4565) (Streptococcus sp.; Streptococcus pneumoniae (GC 4565)) | MIC Streptococcus pneumoniae (ATCC 6301) (Streptococcus sp.; strain ATCC 6301) | MIC Streptococcus pneumoniae (GC 4565) (Streptococcus sp.; strain GC 4565)
0.12 µg/mL: MIC Streptococcus pneumoniae (GC 1894) (Streptococcus sp.; Streptococcus pneumoniae (GC 1894)) | MIC Streptococcus pneumoniae (GC 1894) (Streptococcus sp.; strain GC 1894)
>64 µg/mL: MIC Escherichia coli (ATCC 25922) (Escherichia coli; strain ATCC 25922)
32 µg/mL: MIC Escherichia coli (GC 4559) (Escherichia coli; strain GC 4559)
2 µg/mL: MIC Staphylococcus aureus (GC 1131) (Staphylococcus sp.) | MIC Staphylococcus aureus (GC 3051) (Staphylococcus sp.) | MIC Staphylococcus aureus (GC 4541) (Staphylococcus sp.) | MIC Staphylococcus aureus (GC 4542) (Staphylococcus sp.) | MIC Staphylococcus aureus (GC 4545) (Staphylococcus sp.) | MIC Staphylococcus aureus (GC 1131) (Staphylococcus sp.; inoculum 5×10^5 CFU/mL, strain GC 1131) | MIC Staphylococcus aureus (GC 3051) (Staphylococcus sp.; strain GC 3051) | MIC Staphylococcus aureus (GC 4541) (Staphylococcus sp.; strain GC 4541) | MIC Staphylococcus aureus (GC 4542) (Staphylococcus sp.; strain GC 4542) | MIC Staphylococcus aureus-SMITH (GC 4543) (Staphylococcus sp.; strain GC 4543) | MIC Staphylococcus aureus (GC 4545) (Staphylococcus sp.; strain GC 4545) | MIC Coagulase Negative Staphylococcus (GC 4547) (Staphylococcus sp.; strain GC 4547) | MIC Coagulase Negative Staphylococcus (GC 4551) (Staphylococcus sp.; strain GC 4551) | MIC Staphylococcus aureus-SMITH (GC 4543) (Staphylococcus sp.; strain SMITH GC 4543)
0.5 µg/mL: MIC Streptococcus agalactiae (GC 4564) (Streptococcus sp.; Streptococcus agalactiae (GC 4564)) | MIC Streptococcus pyogenes (GC 4563) (Streptococcus sp.; Streptococcus pyogenes (GC 4563)) | MIC Streptococcus pyogenes (GC 4563) (Streptococcus sp.; strain GC 4563) | MIC Streptococcus agalactiae (GC 4564) (Streptococcus sp.; strain GC 4564)
8 µg/mL: MIC Enterococcus faecalis (ATCC 29212) (Enterococcus sp.; Enterococcus faecalis (ATCC 29212)) | MIC Enterococcus faecalis (GC 2242) (Enterococcus sp.; Enterococcus faecalis (GC 2242)) | MIC Enterococcus faecalis (GC 2691) (Enterococcus sp.; Enterococcus faecalis (GC 2691)) | MIC Enterococcus faecalis (GC 4552) (Enterococcus sp.; Enterococcus faecalis (GC 4552)) | MIC Enterococcus faecalis (GC 4554) (Enterococcus sp.; Enterococcus faecalis (GC 4554)) | MIC Enterococcus faecalis (GC 6189) (Enterococcus sp.; Enterococcus faecalis (GC 6189)) | MIC Enterococcus faecium (GC 2243) (Enterococcus sp.; Enterococcus faecium (GC 2243)) | MIC Enterococcus faecium (GC 4556) (Enterococcus sp.; Enterococcus faecium (GC 4556)) | MIC Enterococcus faecalis (ATCC 29212) (Enterococcus sp.; strain ATCC 29212) | MIC Enterococcus faecalis (GC 2242) (Enterococcus sp.; strain GC 2242) | MIC Enterococcus faecium (GC 2243) (Enterococcus sp.; strain GC 2243) | MIC Enterococcus faecalis (GC 2691) (Enterococcus sp.; strain GC 2691) | MIC Enterococcus faecalis (GC 4552) (Enterococcus sp.; strain GC 4552) | MIC Enterococcus faecalis (GC 4554) (Enterococcus sp.; strain GC 4554) | MIC Enterococcus faecium (GC 4556) (Enterococcus sp.; strain GC 4556) | MIC Enterococcus faecalis (GC 6189) (Enterococcus sp.; strain GC 6189)
1 µg/mL: MIC Escherichia coli (GC 4560) (Escherichia coli; strain GC 4560) | MIC Staphylococcus haemolyticus (GC 4546) (Staphylococcus sp.; strain GC 4546) | MIC Coagulase Negative Staphylococcus (GC 4548) (Staphylococcus sp.; strain GC 4548) | MIC Coagulase Negative Staphylococcus (GC 4549) (Staphylococcus sp.; strain GC 4549) | MIC Coagulase Negative Staphylococcus (GC 6257) (Staphylococcus sp.; strain GC 6257)
16 µg/mL: MIC Enterococcus avium (GC 4558) (Enterococcus sp.; Enterococcus avium (GC 4558)) | MIC Enterococcus faecalis (GC 3059) (Enterococcus sp.; Enterococcus faecalis (GC 3059)) | MIC Enterococcus faecalis (GC 4553) (Enterococcus sp.; Enterococcus faecalis (GC 4553)) | MIC Enterococcus faecalis (GC 3059) (Enterococcus sp.; strain GC 3059) | MIC Enterococcus faecalis (GC 4553) (Enterococcus sp.; strain GC 4553) | MIC Enterococcus avium (GC 4558) (Enterococcus sp.; strain GC 4558)
